Laboratory results taken from patent publication US6372781B1, “Compounds for treating gastroduodenal diseases” (Pfizer Inc., priority 1994, dated 2002).

How the values were obtained:
Helicobacter pylori [1] = experiment: in vitro screen against Helicobacter pylori (agar dilution / microdilution broth MIC); assay type: cell-based
Bacillus cereus = settings: against Bacillus cereus; cited from earlier work
Bacillus subtilis = settings: against Bacillus subtilis; cited from earlier work
Escherichia coli = settings: against Escherichia coli; cited from earlier work
Aspergillus niger = settings: against Aspergillus niger; cited from earlier work
Botrytis cinerea = settings: against Botrytis cinerea; cited from earlier work
Cladosporium cucumerinum = settings: against Cladosporium cucumerinum; cited from earlier work
Ophiostoma ulmi = settings: against Ophiostoma ulmi; cited from earlier work
Saccharomyces cerevisiae = settings: against Saccharomyces cerevisiae; cited from earlier work
Helicobacter pylori [2] = settings: cited from earlier work

Compound | helicobactericidal activity (kills Helicobacter pylori) (Helicobacter pylori [1]) | bacteriostatic activity (Bacillus cereus) | bacteriostatic activity (Bacillus subtilis) | bacteriostatic activity (Escherichia coli) | antifungal activity (Aspergillus niger) | antifungal activity (Botrytis cinerea) | antifungal activity (Cladosporium cucumerinum) | antifungal activity (Ophiostoma ulmi) | antifungal activity (Saccharomyces cerevisiae) | helicobactericidal activity (Helicobacter pylori [2])
COc1cc(O)cc2c1C(=O)OC2CCCCCC1CCCC2(CCC(C)O2)O1 (stereo not shown) [spirolaxine] | potent helicobactericidal | weak bacteriostatic activity | weak bacteriostatic activity | weak bacteriostatic activity | no antifungal activity | no antifungal activity | no antifungal activity | no antifungal activity | no antifungal activity | 
colloidal bismuth subcitrate |  |  |  |  |  |  |  |  |  | helicobactericidal
